Target: T1, Recombinant human GSK3β (Homo sapiens, UniProt P49841)
T1 construct: His-tag; made in house; host or cells: Sf9 insect cells / baculovirus
Assay: GSK-3β (Glycogen Synthase Kinase) cell free enzyme assay
Format: biochemical
Settings: 1 μM; Examples 157-199
Procedure, shortened: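 This cell-free kinase assay measured [33P] transfer from [33P]ATP gamma phosphate into the biotinylated peptide bio-LC-S-R-H-S-S-P-H-Q-pS-E-D-E-E-E-OH. After 60 min at RT, reactions were stopped with 0.66 volume of PBS lacking Ca or Mg containing 12.5 mM EDTA, 0.25% Triton-X 100, 125 uM ATP and 6.2 mg/ml streptavidin SPA beads. Bead-bound radioactivity was counted as CPM on a Trilux scintillation counter.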

T1 sequence (P49841 whole entry): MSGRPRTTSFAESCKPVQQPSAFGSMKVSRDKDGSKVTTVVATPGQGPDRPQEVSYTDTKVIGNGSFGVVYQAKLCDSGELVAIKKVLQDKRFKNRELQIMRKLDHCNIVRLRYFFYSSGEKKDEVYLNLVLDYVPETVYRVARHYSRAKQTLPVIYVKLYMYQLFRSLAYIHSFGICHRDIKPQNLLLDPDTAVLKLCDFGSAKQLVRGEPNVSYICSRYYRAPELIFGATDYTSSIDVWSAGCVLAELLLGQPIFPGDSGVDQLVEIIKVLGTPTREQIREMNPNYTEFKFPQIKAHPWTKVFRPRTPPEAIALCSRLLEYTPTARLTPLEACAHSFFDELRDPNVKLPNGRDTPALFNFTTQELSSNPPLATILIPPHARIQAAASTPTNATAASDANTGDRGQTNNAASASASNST

SMILES	Percent inhibition at 1 μM [%]
Cn1c(N2[C@@H]3CC[C@H]2CN(S(=O)(=O)c2ccccc2)C3)nc(-c2ccncc2)cc1=O [Example 169, 3-Methyl-2-[(1R,5S)-3-(phenylsulfonyl)-38-diazabicyclo[3.2.1]oct-8-yl]-6-pyridin-4-ylpyrimidin-4(3H)-one]	92

Same assay, conditions: 1 μM; Examples 157-199; read-out: Percent inhibition at 1 μM

inhibition at 1 µM [%]	SMILES
61	Cn1c(N[C@H]2[C@@H]3CN(S(C)(=O)=O)C[C@@H]32)nc(-c2ccncc2)cc1=O [Example 157, 3-Methyl-2-{[(1R,5S,6s)-3-(methylsulfonyl)-3-azabicyclo[3.1.0]hex-6-yl]amino}-6-pyridin-4-ylpyrimidin-4(3H)-one]
74	Cn1c(N[C@H]2CN(S(C)(=O)=O)C[C@@H]2F)nc(-c2ccncc2)cc1=O [Example 158, 2-{[(3S,4S)-4-Fluoro-1-(methylsulfonyl)pyrrolidin-3-yl]amino}-3-methyl-6-pyridin-4-ylpyrimidin-4(3H)-one]
100	CN(c1nc(-c2ccncc2)cc(=O)n1C)C1CCCN(S(C)(=O)=O)CC1 (centres unmarked) [Example 159, 3-Methyl-2-{methyl[1-(methylsulfonyl)azepan-4-yl]amino}-6-pyridin-4-ylpyrimidin-4(3H)-one]
79	CN(c1nc(-c2ccncc2)cc(=O)n1C)C1CCN(S(C)(=O)=O)C1 (centres unmarked) [Example 160, 3-Methyl-2-(methyl[1-(methylsulfonyl)pyrrolidin-3-yl]amino}-6-pyridin-4-ylpyrimidin-4(3H)-one]
93	Cn1c(N[C@@H]2CN(S(C)(=O)=O)C[C@@H]2F)nc(-c2ccncc2)cc1=O [Example 161, 2-{[(3R,4S)-4-Fluoro-1-(methylsulfonyl)pyrrolidin-3-yl]amino}-3-methyl-6-pyridin-4-ylpyrimidin-4(3H)-one]
84	CN(c1nc(-c2ccncc2)cc(=O)n1C)[C@@H]1CC[C@H]2N(S(C)(=O)=O)CC[C@@]2(C)C1 [Example 162, 3-Methyl-2-{methyl[(3a,S5,R7,aR)-3a-methyl-1-(methylsulfonyl)octahydro-1H-indo-5-yl]amino}-6-pyridin-4-ylpyrimidin-4(3H)-one]
100	CCN(c1nc(-c2ccncc2)cc(=O)n1C)C1CCCN(S(C)(=O)=O)CC1 (centres unmarked) [Example 163, 2-{Ethyl[1-(methylsulfonyl)azepan-4-yl]amino}-3-methyl-6-pyridin-4-ylpyrimidin-4(3H)-one]
82	CCN(c1nc(-c2ccncc2)cc(=O)n1C)C1CCCN(S(C)(=O)=O)C1 (centres unmarked) [Example 164, 2-{Ethyl[1-(methylsulfonyl)piperidin-3-yl]amino)-3-methyl-6-pyridin-4-ylpyrimidin-4(3H)-one]
80	CCN(c1nc(-c2ccncc2)cc(=O)n1C)C1CCN(S(C)(=O)=O)CC1 [Example 165, 2-{Ethyl[1-(methylsulfonyl)piperidin-4-yl]amino}-3-methyl-6-pyridin-4-ylpyrimidin-4(3H)-one]
74	CCN(C[C@H]1CCCN1S(C)(=O)=O)c1nc(-c2ccncc2)cc(=O)n1C [Example 166, 2-(Ethyl{[(2R)-1-(methylsulfonyl)pyrrolidin-2-yl]methyl}amino)-3-methyl-6-pyridin-4-ylpyrimidin-4(3H)-one]
78	Cn1c(NC[C@H]2CCCN2S(C)(=O)=O)nc(-c2ccncc2)cc1=O [Example 168, 3-Methyl-2-({[(2R)-1-(methylsulfonyl)pyrrolidin-2-yl]methyl}amino)-6-pyridin-4-ylpyrimidin-4(3H)-one]

Same assay, conditions: cell free enzyme assay; Examples 62-155

IC50 [nM]	SMILES
13.8	CCCC(=O)N1C[C@@H]2[C@H](C1)[C@H]2N(C)c1nc(-c2ccncc2F)cc(=O)n1C [Example 138, 2-{[(1R,5S,6s)-3-Butyryl-3-azabicyclo[3.1.0]hex-6-yl](methyl)amino}-6-(3-fluoropyridin-4-yl)-3-methylpyrimidin-4(3H)-one]
5.67	CN(c1nc(-c2ccncc2F)cc(=O)n1C)[C@H]1[C@@H]2CN(C(=O)c3ccc(F)cc3)C[C@@H]21 [Example 139, 2-{[(1R,5S,6s)-3-(4-Fluorobenzoyl)-3-azabicyclo[3.1.0]hex-6-yl](methyl)amino}-6-(3-fluoropyridin-4-yl)-3-methylpyrimidin-4(3H)-one]
8.72	CN(c1nc(-c2ccncc2F)cc(=O)n1C)[C@H]1[C@@H]2CN(C(=O)C3CC=CCC3)C[C@@H]21 (stereo partly drawn) [Example 140, 2-{[(1R,5S,6s)-3-(Cyclohex-3-en-1-ylcarbonyl)-3-azabicyclo[3.1.0]hex-6-yl](methyl)amino}-6-(3-fluoropyridin-4-yl)-3-methylpyrimidin-4(3H)-one]
1.04	CN(c1nc(-c2ccncc2F)cc(=O)n1C)[C@H]1[C@@H]2CN(C(=O)c3cc(Cl)sc3Cl)C[C@@H]21 [Example 141, 2-[{(1R,5S,6s)-3-[(2,5-Dichloro-3-thienyl)carbonyl]-3-azabicyclo[3.1.0]hex-6-yl}(methyl)amino]-6-(3-fluoropyridin-4-yl)-3-methylpyrimidin-4(3H)-one]
3.51	Cc1ccc(C(=O)N2C[C@@H]3[C@H](C2)[C@H]3N(C)c2nc(-c3ccncc3F)cc(=O)n2C)cc1 [Example 142, 6-(3-Fluoropyridin-4-yl)-3-methyl-2-{methyl[(1R,5S,6s)-3-(4-methylbenzoyl)-3-azabicyclo[3.1.0]hex-6-yl]amino}pyrimidin-4(3H)-one]
57.4	COC(=O)CCCC(=O)N1C[C@@H]2[C@H](C1)[C@H]2N(C)c1nc(-c2ccncc2F)cc(=O)n1C [Example 143, Methyl 5-[(1R,5S,6s)-6-{[4-(3-fluoropyridin-4-yl)-1-methyl-6-oxo-1,6-dihydropyrimidin-2-yl](methyl)amino}-3-azabicyclo[3.1.0]hex-3-yl]-5-oxopentanoate]
4.09	CN(c1nc(-c2ccncc2F)cc(=O)n1C)[C@H]1[C@@H]2CN(C(=O)c3cc(F)cc(F)c3)C[C@@H]21 [Example 144, 2-{[(1R,5S,6s)-3-(3,5-Difluorobenzoyl)-3-azabicyclo[3.1.0]hex-6-yl](methyl)amino}-6-(3-fluoropyridin-4-yl)-3-methylpyrimidin-4(3H)-one]
13.2	CC[C@@H](Oc1ccccc1)C(=O)N1C[C@@H]2[C@H](C1)[C@H]2N(C)c1nc(-c2ccncc2F)cc(=O)n1C [Example 145, 6-(3-Fluoropyridin-4-yl)-3-methyl-2-{methyl[(1R,5S,6s)-3-(2-phenoxybutanoyl)-3-azabicyclo[3.1.0]hex-6-yl]amino}pyrimidin-4(3H)-one]
6.16	CN(c1nc(-c2ccncc2F)cc(=O)n1C)[C@H]1[C@@H]2CN(C(=O)Cc3cccs3)C[C@@H]21 [Example 146, 6-(3-Fluoropyridin-4-yl)-3-methyl-2-{methyl[(1R,5S,6s)-3-(2-thienylacetyl)-3-azabicyclo[3.1.0]hex-6-yl]amino}pyrimidin-4(3H)-one]
3.7	Cc1cc(C(=O)N2C[C@@H]3[C@H](C2)[C@H]3N(C)c2nc(-c3ccncc3F)cc(=O)n2C)c(C)o1 [Example 147, 2-{[(1R,5S,6s)-3-(2,5-Dimethyl-3-furoyl)-3-azabicyclo[3.1.0]hex-6-yl](methyl)amino}-6-(3-fluoropyridin-4-yl)-3-methylpyrimidin-4(3H)-one]
36.1	CN(c1nc(-c2ccncc2F)cc(=O)n1C)[C@H]1[C@@H]2CN(C(=O)c3ccncc3Cl)C[C@@H]21 [Example 148, 2-{[(1R,5S,6s)-3-(3-Chloroisonicotinoyl)-3-azabicyclo[3.1.0]hex-6-yl](methyl)amino}-6-(3-fluoropyridin-4-yl)-3-methylpyrimidin-4(3H)-one]
3.81	CN(c1nc(-c2ccncc2F)cc(=O)n1C)[C@H]1[C@@H]2CN(C(=O)c3c(Cl)cccc3Cl)C[C@@H]21 [Example 149, 2-{[(1R,5S,6s)-3-(2,6-Dichlorobenzoyl)-3-azabicyclo[3.1.0]hex-6-yl](methyl)amino}-6-(3-fluoropyridin-4-yl)-3-methylpyrimidin-4(3H)-one]
1.51	CN(c1nc(-c2ccncc2F)cc(=O)n1C)[C@H]1[C@@H]2CN(C(=O)c3ccccc3)C[C@@H]21 [Example 150, 2-{[(1R,5S,6s)-3-Benzoyl-3-azabicyclo[3.1.0]hex-6-yl](methyl)amino}-6-(3-fluoropyridin-4-yl)-3-methylpyrimidin-4(3H)-one]
1.22	COc1ccc(C(=O)N2C[C@@H]3[C@H](C2)[C@H]3N(C)c2nc(-c3ccncc3F)cc(=O)n2C)c(OC)c1 [Example 151, 2-{[(1R,5S,6s)-3-(2,4-Dimethoxybenzoyl)-3-azabicyclo[3.1.0]hex-6-yl](methyl)amino}-6-(3-fluoropyridin-4-yl)-3-methylpyrimidin-4(3H)-one]
7.23	CN(c1nc(-c2ccncc2F)cc(=O)n1C)[C@H]1[C@@H]2CN(C(=O)c3ccc(F)c(F)c3)C[C@@H]21 [Example 153, 2-{[(1R,5S,6s)-3-(3,4-Difluorobenzoyl)-3-azabicyclo[3.1.0]hex-6-yl](methyl)amino}-6-(3-fluoropyridin-4-yl)-3-methylpyrimidin-4(3H)-one]
26.4	CN(c1nc(-c2ccncc2F)cc(=O)n1C)[C@H]1[C@@H]2CN(C(=O)c3ccc(C(F)(F)F)nc3)C[C@@H]21 [Example 154, 6-(3-Fluoropyridin-4-yl)-3-methyl-2-{methyl[(1R,5S,6s)-3-{[6-(trifluoromethyl)pyridin-3-yl]carbonyl}-3-azabicyclo[3.1.0]hex-6-yl]amino}pyrimidin-4(3H)-one]
102	Cc1c(C(=O)N2C[C@@H]3[C@H](C2)[C@H]3N(C)c2nc(-c3ccncc3F)cc(=O)n2C)cnn1-c1ccccc1 [Example 155, 6-(3-Fluoropyridin-4-yl)-3-methyl-2-(methyl{(1R,5S,6s)-3-[(5-methyl-1-phenyl-1H-pyrazol-4-yl)carbonyl]-3-azabicyclo[3.1.0]hex-6-yl}amino)pyrimidin-4(3H)-one]
